Reference: patent publication US6355799B1, “Substituted benzene compounds, process for their preparation, and herbicidal and defoliant compositions containing them” (ISK Americas Incorporated, priority 1997, dated 2002)

Tests used:
Type in all cases: in vivo
[1] = system: field corn (Zea mays L., var. Dekalb 535, CORN); assay: Pre-emerge test, crop safety; conditions: rating scale 0-100, 14 days after application
Outline: (§1)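 Plants grown in 10 cm pots of sandy loam mix received acetone-dissolved compounds through a moving flat-fan nozzle. Doses ranged from 15 to 1000 g ai/ha. Pre-emerge pots were seeded one day earlier, post-emerge pots 8–21 days earlier. Fourteen days on, each pot was graded 0–100 for damage.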

[2] = system: upland rice (Oryza sp., var. Tebonnet, RICE); assay: Pre-emerge test, crop safety; conditions: rating scale 0-100, 14 days after application
Outline: as §1

[3] = system: sicklepod (Cassia obtusifolia, CASOB); assay: Post-emerge test, greenhouse herbicide activity screening; conditions: rating scale 0-100 (0 no damage, 100 complete death), 14 days after application
Outline: (§2)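 Each test used a mechanized track sprayer delivering 187 l/ha of acetone solution at 15–1000 g ai/ha. Post-emerge foliage at 2–3 leaves was treated with added 0.25% v/v non-ionic surfactant and bottom-watered only. Injury was assessed on day 14, where 100 means total kill.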

[4] = system: johnsongrass (Sorghum halepense, SORHA); assay: as above; conditions: rating scale 0-100 (0 no damage, 100 complete death), 14 days after application
Outline: as §2

[5] = system: lambsquarters (Chenopodium album, CHEAL); assay: as above; conditions: rating scale 0-100 (0 no damage, 100 complete death), 14 days after application
Outline: as §2

[6] = system: barnyardgrass (Echinochloa crus-galli, ECHCG); assay: as above; conditions: rating scale 0-100 (0 no damage, 100 complete death), 14 days after application
Outline: as §2

[7] = system: green foxtail (Setaria viridis, SETVI); assay: as above; conditions: rating scale 0-100 (0 no damage, 100 complete death), 14 days after application
Outline: as §2

[8] = system: common ragweed (Ambrosia artemisizfolia L., AMBEL); assay: as above; conditions: rating scale 0-100 (0 no damage, 100 complete death), 14 days after application
Outline: as §2

[9] = system: redroot pigweed (Amaranthus retroflexus, AMARE); assay: as above; conditions: rating scale 0-100 (0 no damage, 100 complete death), 14 days after application
Outline: as §2

[10] = system: ivyleaf morningglory (Ipomoea hederacea, IPOHE); assay: as above; conditions: rating scale 0-100 (0 no damage, 100 complete death), 14 days after application
Outline: as §2

[11] = system: large crabgrass (Digitaria sanguinalis, DIGSA); assay: as above; conditions: rating scale 0-100 (0 no damage, 100 complete death), 14 days after application
Outline: as §2

[12] = system: velvetleaf (Abutilon theophrasti, ABUTH); assay: as above; conditions: rating scale 0-100 (0 no damage, 100 complete death), 14 days after application
Outline: as §2

[13] = system: field corn (Zea mays L., var. Dekalb 535, CORN); assay: Post-emerge test, crop safety; conditions: rating scale 0-100 (0 no damage, 100 complete death), 14 days after application
Outline: (§3)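 Fourteen days after spraying, crop and weed injury was graded visually from 0, no effect, to 100, every plant dead. Test substances were dissolved in acetone and applied at 15–1000 g ai/ha with a flat-fan nozzle. Application was either pre-emergence, one day after sowing, or post-emergence at the 2–3 leaf stage.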

[14] = system: upland rice (Oryza sp., var. Tebonnet, RICE); assay: Post-emerge test, crop safety; conditions: rating scale 0-100 (0 no damage, 100 complete death), 14 days after application
Outline: as §3

[15] = system: redroot pigweed (Amaranthus retroflexus, AMARE); assay: Pre-emerge test, greenhouse herbicide activity screening; conditions: rating scale 0-100, 14 days after application
Outline: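 Visual ratings on a 0-100 scale (0 no damage, 100 all plants dead) were taken at 14 days after treatment. Rates of 15-1000 g ai/ha in acetone, 187 l/ha, were sprayed onto soil one day after planting (pre-emerge) or onto 2-3 leaf plants with 0.25% v/v surfactant (post-emerge).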

[16] = system: sicklepod (Cassia obtusifolia, CASOB); assay: as above; conditions: rating scale 0-100, 14 days after application
Outline: as §3

[17] = system: johnsongrass (Sorghum halepense, SORHA); assay: as above; conditions: rating scale 0-100, 14 days after application
Outline: as §3

[18] = system: lambsquarters (Chenopodium album, CHEAL); assay: as above; conditions: rating scale 0-100, 14 days after application
Outline: as §3

[19] = system: barnyardgrass (Echinochloa crus-galli, ECHCG); assay: as above; conditions: rating scale 0-100, 14 days after application
Outline: as §3

[20] = system: green foxtail (Setaria viridis, SETVI); assay: as above; conditions: rating scale 0-100, 14 days after application
Outline: as §3

[21] = system: common ragweed (Ambrosia artemisizfolia L., AMBEL); assay: as above; conditions: rating scale 0-100, 14 days after application
Outline: as §3

[22] = system: ivyleaf morningglory (Ipomoea hederacea, IPOHE); assay: as above; conditions: rating scale 0-100, 14 days after application
Outline: as §3

[23] = system: large crabgrass (Digitaria sanguinalis, DIGSA); assay: as above; conditions: rating scale 0-100, 14 days after application
Outline: as §3

[24] = system: velvetleaf (Abutilon theophrasti, ABUTH); assay: as above; conditions: rating scale 0-100, 14 days after application
Outline: as §3

In the case of `COc1c(Cl)cc(F)c(-n2c(=O)cc(C(F)(F)F)n(C)c2=O)c1CC(Cl)C(=O)OCC(F)(F)F` (stereo not drawn) [14-21], the “Pre-emerge phytotoxicity rating, crop damage CORN” value ([1]; 63 g ai/ha) is reported as 0, the “Pre-emerge phytotoxicity rating, crop damage CORN” value ([1]; 250 g ai/ha) is reported as 70 and the “Pre-emerge phytotoxicity rating, crop damage RICE” value ([2]; 63 g ai/ha) is reported as 0. For the same compound, the “Pre-emerge phytotoxicity rating, crop damage RICE” value ([2]; 250 g ai/ha) was 20, the “Post-emerge Herbicidal Activity, phytotoxicity rating CASOB” value ([3]; Rate 63 g ai/ha) was 30 and the “Post-emerge Herbicidal Activity, phytotoxicity rating CASOB” value ([3]; Rate 250 g ai/ha) was 60. For the same compound, the “Post-emerge Herbicidal Activity, phytotoxicity rating SORHA” value ([4]; Rate 63 g ai/ha) was 10, the “Post-emerge Herbicidal Activity, phytotoxicity rating SORHA” value ([4]; Rate 250 g ai/ha) was 70 and the “Post-emerge Herbicidal Activity, phytotoxicity rating CHEAL” value ([5]; Rate 63 g ai/ha) was 70. For the same compound, the “Post-emerge Herbicidal Activity, phytotoxicity rating CHEAL” value ([5]; Rate 250 g ai/ha) was 95, the “Post-emerge Herbicidal Activity, phytotoxicity rating ECHCG” value ([6]; Rate 63 g ai/ha) was 99 and the “Post-emerge Herbicidal Activity, phytotoxicity rating ECHCG” value ([6]; Rate 250 g ai/ha) was 100. For the same compound, the “Post-emerge Herbicidal Activity, phytotoxicity rating SETVI” value ([7]; Rate 63 g ai/ha) was 10, the “Post-emerge Herbicidal Activity, phytotoxicity rating SETVI” value ([7]; Rate 250 g ai/ha) was 40 and the “Post-emerge Herbicidal Activity, phytotoxicity rating AMBEL” value ([8]; Rate 63 g ai/ha) was 50. For the same compound, the “Post-emerge Herbicidal Activity, phytotoxicity rating AMBEL” value ([8]; Rate 250 g ai/ha) was 95, the “Post-emerge Herbicidal Activity, phytotoxicity rating AMARE” value ([9]; Rate 63 g ai/ha) was 90 and the “Post-emerge Herbicidal Activity, phytotoxicity rating AMARE” value ([9]; Rate 250 g ai/ha) was 100. For the same compound, the “Post-emerge Herbicidal Activity, phytotoxicity rating IPOHE” value ([10]; Rate 63 g ai/ha) was 40, the “Post-emerge Herbicidal Activity, phytotoxicity rating IPOHE” value ([10]; Rate 250 g ai/ha) was 50 and the “Post-emerge Herbicidal Activity, phytotoxicity rating DIGSA” value ([11]; Rate 63 g ai/ha) was 70. For the same compound, the “Post-emerge Herbicidal Activity, phytotoxicity rating DIGSA” value ([11]; Rate 250 g ai/ha) was 98, the “Post-emerge Herbicidal Activity, phytotoxicity rating ABUTH” value ([12]; Rate 63 g ai/ha) was 100 and the “Post-emerge Herbicidal Activity, phytotoxicity rating ABUTH” value ([12]; Rate 250 g ai/ha) was 95. For the same compound, the “Post-emerge phytotoxicity rating CORN (crop damage)” value ([13]; Rate 63 g ai/ha) was 50, the “Post-emerge phytotoxicity rating CORN (crop damage)” value ([13]; Rate 250 g ai/ha) was 100 and the “Post-emerge phytotoxicity rating RICE (crop damage)” value ([14]; Rate 63 g ai/ha) was 10. The “Post-emerge phytotoxicity rating RICE (crop damage)” value ([14]; Rate 250 g ai/ha) was 45, the “Pre-emerge herbicidal activity, phytotoxicity rating AMARE” value ([15]; 63 g ai/ha) was 60 and the “Pre-emerge herbicidal activity, phytotoxicity rating AMARE” value ([15]; 250 g ai/ha) was 95. For the same compound, the “Pre-emerge herbicidal activity, phytotoxicity rating CASOB” value ([16]; 63 g ai/ha) was 0, the “Pre-emerge herbicidal activity, phytotoxicity rating CASOB” value ([16]; 250 g ai/ha) was 10 and the “Pre-emerge herbicidal activity, phytotoxicity rating SORHA” value ([17]; 63 g ai/ha) was 0. The “Pre-emerge herbicidal activity, phytotoxicity rating SORHA” value ([17]; 250 g ai/ha) was 35, the “Pre-emerge herbicidal activity, phytotoxicity rating CHEAL” value ([18]; 63 g ai/ha) was 20 and the “Pre-emerge herbicidal activity, phytotoxicity rating CHEAL” value ([18]; 250 g ai/ha) was 75. The “Pre-emerge herbicidal activity, phytotoxicity rating ECHCG” value ([19]; 63 g ai/ha) was 0, the “Pre-emerge herbicidal activity, phytotoxicity rating ECHCG” value ([19]; 250 g ai/ha) was 20 and the “Pre-emerge herbicidal activity, phytotoxicity rating SETVI” value ([20]; 63 g ai/ha) was 0. The “Pre-emerge herbicidal activity, phytotoxicity rating SETVI” value ([20]; 250 g ai/ha) was 0, the “Pre-emerge herbicidal activity, phytotoxicity rating AMBEL” value ([21]; 63 g ai/ha) was 0 and the “Pre-emerge herbicidal activity, phytotoxicity rating AMBEL” value ([21]; 250 g ai/ha) was 40. For the same compound, the “Pre-emerge herbicidal activity, phytotoxicity rating IPOHE” value ([22]; 63 g ai/ha) was 0, the “Pre-emerge herbicidal activity, phytotoxicity rating IPOHE” value ([22]; 250 g ai/ha) was 0 and the “Pre-emerge herbicidal activity, phytotoxicity rating DIGSA” value ([23]; 63 g ai/ha) was 0. The “Pre-emerge herbicidal activity, phytotoxicity rating DIGSA” value ([23]; 250 g ai/ha) was 70, the “Pre-emerge herbicidal activity, phytotoxicity rating ABUTH” value ([24]; 63 g ai/ha) was 40 and the “Pre-emerge herbicidal activity, phytotoxicity rating ABUTH” value ([24]; 250 g ai/ha) was 100.
